Data published in patent publication US5409933A, “Quinoline derivatives and processes for preparing the same” (priority 1993, dated 1995).
Counter-ions that a name gives are not always drawn. Like-named read-outs stand apart in the source and are kept apart here.

How the values were obtained:
Assay in all cases: In Vitro Anti-Bacterial Activity Test (MIC, agar dilution)
Type in all cases: cell-based
[1] = tested on: Enterobacter cloacae P99; settings: Enterobacter cloacae, P99, 18 h
Protocol: (§1) The above in vitro antibacterial activity test was carried out in accordance with the agar culture medium dilution method (Hoechst 345) by using Muller-Hinton agar medium to determine the minimum inhibitory concentration (MIC).
(§2) The strains having 10^7 C.F.U./ml were inoculated on the culture medium, and the growth of the strains was observed after incubating them at 37° C. for 18 hours, in which ciprofloxacin was used as a control antibacterial agent. In this test, twenty typical strains were used.

[2] = tested on: Escherichia coli DC0; settings: Muller-Hinton agar, 37° C., 18 hours, read-out: MIC
Protocol: as §1, §2

[3] = tested on: Escherichia coli DC2; settings: Escherichia coli, DC2, 18 h
Protocol: as §1, §2

[4] = tested on: Staphylococcus aureus SG511
Protocol: as §1, §2

[5] = tested on: Streptococcus pyogenes 308A; settings: Muller-Hinton agar, 37° C., 18 hours, read-out: MIC
Protocol: as §1, §2

[6] = tested on: Pseudomonas aeruginosa 1771; settings: Pseudomonas aeruginosa 1771; Muller-Hinton agar, 37° C., 18 hours; read-out: MIC
Protocol: as §1, §2

[7] = tested on: Pseudomonas aeruginosa 1771M; settings: Pseudomonas aeruginosa, 1771M, 18 h, Muller-Hinton agar, 37° C.
Protocol: as §1, §2

[8] = tested on: Streptococcus pyogenes 77A
Protocol: as §1, §2

[9] = tested on: Escherichia coli 1507E; settings: Muller-Hinton agar, 37° C.
Protocol: as §1, §2

[10] = tested on: Klebsiella oxytoca 1082E; settings: Klebsiella oxytoca 1082E; Muller-Hinton agar, 37° C., 18 hours; read-out: MIC
Protocol: as §1, §2

[11] = tested on: Staphylococcus aureus 285; settings: Staphylococcus aureus, 285, 18 h
Protocol: as §1, §2

[12] = tested on: Streptococcus faecium MD8b; settings: Enterococcus faecium, Muller-Hinton agar, 37° C., 18 hours, read-out: MIC
Protocol: as §1, §2

[13] = tested on: Pseudomonas aeruginosa 1592E; settings: Muller-Hinton agar, 37° C., 18 hours, read-out: MIC
Protocol: as §1, §2

[14] = tested on: Salmonella typhimurium; settings: Salmonella enterica
Protocol: as §1, §2

[15] = tested on: Escherichia coli TEM; settings: Escherichia coli, 18 h, Muller-Hinton agar, 37° C.
Protocol: as §1, §2

[16] = tested on: Escherichia coli 078; settings: Escherichia coli 078; Muller-Hinton agar, 37° C., 18 hours; read-out: MIC
Protocol: as §1, §2

[17] = tested on: Pseudomonas aeruginosa 9027; settings: Muller-Hinton agar, 37° C., 18 hours, read-out: MIC
Protocol: as §1, §2

[18] = tested on: Enterobacter cloacae 1321E; settings: Enterobacter cloacae 1321E; Muller-Hinton agar, 37° C., 18 hours; read-out: MIC
Protocol: as §1, §2

[19] = tested on: Klebsiella aerogenes 1522E; settings: Klebsiella aerogenes, 1522E, 18 h
Protocol: as §1, §2

[20] = tested on: Staphylococcus aureus 503
Protocol: as §1, §2

[21] = Staphylococcus aureus SG511, Muller-Hinton agar, 37° C., 18 hours, read-out: MIC
[22] = Streptococcus pyogenes 77A, Muller-Hinton agar, 37° C., 18 hours, read-out: MIC
[23] = Staphylococcus aureus 285, Muller-Hinton agar, 37° C., 18 hours, read-out: MIC
[24] = Salmonella typhimurium, Muller-Hinton agar, 37° C., 18 hours, read-out: MIC
[25] = Klebsiella aerogenes 1522E, Muller-Hinton agar, 37° C., 18 hours, read-out: MIC
[26] = Staphylococcus aureus 503, Muller-Hinton agar, 37° C., 18 hours, read-out: MIC

Compound | MIC [1] | MIC [2] | MIC [3] | MIC [4, 21] | MIC [5] | MIC [6] | MIC [7] | MIC [8, 22] | MIC [10] | MIC [11, 23] | MIC [12] | MIC [13] | MIC [14, 24] | MIC [15] | MIC [16] | MIC [17] | MIC [18] | MIC [19, 25] | MIC [20, 26] | MIC ([9]; Escherichia coli, 1507E, 18 h) | also measured
NC1CCN(c2c(F)cc3c(=O)c(C(=O)C[N+](=O)[O-])cn(C4CC4)c3c2Cl)C1 (stereo not drawn) [Example 11, 1-cyclopropyl-6-fluoro-8-chloro-7-(3-aminopyrrolidin-1-yl)-3-(2-nitroacetyl)-1,4-dihydro-4-oxoquinoline hydrochloride] | < 0.002 µg/mL | 0.049 µg/mL | 0.013 µg/mL | 0.013 µg/mL | 0.195 µg/mL | 0.098 µg/mL | 0.025 µg/mL | 0.098 µg/mL | < 0.002 µg/mL | 0.025 µg/mL | 0.098 µg/mL | 0.195 µg/mL | < 0.002 µg/mL | < 0.002 µg/mL | < 0.002 µg/mL | 0.195 µg/mL | < 0.002 µg/mL | 0.007 µg/mL | 0.025 µg/mL | – | MIC ([9]; 18 hours, read-out: MIC): < 0.002 µg/mL
N[C@@H]1CCN(c2c(F)cc3c(=O)c(C(=O)C[N+](=O)[O-])cn(C4CC4)c3c2Cl)C1 [Example 12, 1-cyclopropyl-6-fluoro-8-chloro-7-(3-3R-aminopyrrolidin-1-yl)-3-(2-nitroacetyl)-1,4-dihydro-4-oxoquinoline hydrochloride] | 0.004 µg/mL | 0.098 µg/mL | 0.049 µg/mL | – | 0.391 µg/mL | 0.195 µg/mL | 0.049 µg/mL | 0.195 µg/mL | < 0.002 µg/mL | – | 0.098 µg/mL | 0.391 µg/mL | < 0.002 µg/mL | 0.004 µg/mL | < 0.002 µg/mL | 0.391 µg/mL | < 0.002 µg/mL | – | – | – | MIC ([4]; Staphylococcus aureus, SG511, 18 h): 0.025 µg/mL; MIC ([9]; 18 hours, read-out: MIC): 0.004 µg/mL; MIC [11]: 0.025 µg/mL; MIC [19]: 0.025 µg/mL; MIC ([20]; Staphylococcus aureus, 503, 18 h): 0.025 µg/mL
C[C@@H]1CN(c2c(F)c(N)c3c(=O)c(C(=O)C[N+](=O)[O-])cn(C4CC4)c3c2F)C[C@H](C)N1 [Example 14, 1-cyclopropyl-5-amino-6,8-difluoro-7-(3,5-cis-dimethylpiperazin-1-yl)-3-(2-nitroacetyl)-1,4-dihydro-4-oxoquinoline hydrochloride] | 0.007 µg/mL | 0.098 µg/mL | 0.049 µg/mL | 0.098 µg/mL | 1.56 µg/mL | 0.391 µg/mL | 0.195 µg/mL | 0.195 µg/mL | < 0.002 µg/mL | 0.098 µg/mL | 0.391 µg/mL | 0.781 µg/mL | < 0.002 µg/mL | 0.007 µg/mL | < 0.002 µg/mL | 0.781 µg/mL | < 0.002 µg/mL | 0.025 µg/mL | 0.049 µg/mL | 0.013 µg/mL | –
CNCC1=CCN(c2c(F)cc3c(=O)c(C(=O)C[N+](=O)[O-])cn(C4CC4)c3c2F)C1 [Example 15, 1-cyclopropyl-6,8-difluoro-7-(3-methylaminomethyl-2,5-dihydropyrrol-1-yl)-3-(2-nitroacetyl)-1,4-dihydro-4-oxoquinoline hydrochloride] | 0.004 µg/mL | 0.098 µg/mL | 0.013 µg/mL | < 0.002 µg/mL | 0.049 µg/mL | 0.391 µg/mL | 0.195 µg/mL | 0.025 µg/mL | < 0.002 µg/mL | 0.004 µg/mL | 0.025 µg/mL | 0.391 µg/mL | < 0.002 µg/mL | 0.004 µg/mL | < 0.002 µg/mL | 0.781 µg/mL | < 0.002 µg/mL | 0.013 µg/mL | < 0.002 µg/mL | 0.007 µg/mL | –
CCOC(=O)C(C(=O)OCC)C(=O)c1cn(C2CC2)c2cc(N3CCNCC3)c(F)cc2c1=O [Example 18, 1-cyclopropyl-6-fluoro-7-(piperazin-1-yl)-3-(2,2-diethoxycarbonylacetyl)-1,4-dihydro-4-oxoquinoline hydrochloride] | < 0.002 µg/mL | 0.195 µg/mL | 0.098 µg/mL | 0.195 µg/mL | 3.12 µg/mL | 0.195 µg/mL | 0.049 µg/mL | 0.781 µg/mL | 0.004 µg/mL | 0.391 µg/mL | 0.781 µg/mL | 0.391 µg/mL | – | 0.007 µg/mL | 0.004 µg/mL | 0.781 µg/mL | < 0.002 µg/mL | 0.013 µg/mL | 0.391 µg/mL | – | MIC ([9]; 18 hours, read-out: MIC): 0.004 µg/mL; MIC ([14]; TYPHIMURIUM, 18 h): 0.007 µg/mL
CCOC(=O)CC(=O)c1cn(C2CC2)c2cc(N3CCNCC3)c(F)cc2c1=O [Example 19, 1-cyclopropyl-6-fluoro-7-(piperazin-1-yl)-3-(2-ethoxycarbonylacetyl)-1,4-dihydro-4-oxoquinoline hydrochloride] | 0.013 µg/mL | 0.391 µg/mL | 0.391 µg/mL | 0.391 µg/mL | 3.12 µg/mL | 0.781 µg/mL | 1.56 µg/mL | 1.56 µg/mL | 0.013 µg/mL | 1.56 µg/mL | 0.781 µg/mL | 1.56 µg/mL | 0.391 µg/mL | 0.195 µg/mL | 0.004 µg/mL | 0.781 µg/mL | 0.013 µg/mL | 0.049 µg/mL | 0.781 µg/mL | 0.013 µg/mL | –
CCOC(=O)C(C(=O)OCC)C(=O)c1cn(C2CC2)c2c(F)c(N3CCC(N)C3)c(F)cc2c1=O (stereo not drawn) [Example 20, 1-cyclopropyl-6,8-difluoro-7-(3-aminopyrrolidin-1-yl)-3-(2,2-diethoxycarbonylacetyl)-1,4-dihydro-4-oxoquinoline hydrochloride] | < 0.002 µg/mL | 0.098 µg/mL | 0.013 µg/mL | 0.013 µg/mL | 0.391 µg/mL | 0.195 µg/mL | 0.098 µg/mL | 0.098 µg/mL | < 0.002 µg/mL | 0.013 µg/mL | 0.098 µg/mL | 0.195 µg/mL | < 0.002 µg/mL | < 0.002 µg/mL | < 0.002 µg/mL | 0.391 µg/mL | < 0.002 µg/mL | 0.025 µg/mL | 0.025 µg/mL | 0.007 µg/mL | –
CCOC(=O)CC(=O)c1cn(C2CC2)c2c(F)c(N3CCC(N)C3)c(F)cc2c1=O (stereo not drawn) [Example 21, 1-cyclopropyl-6,8-difluoro-7-(3-aminopyrrolidin-1-yl)-3-(2-ethoxycarbonylacetyl)-1,4-dihydro-4-oxoquinoline hydrochloride] | 0.007 µg/mL | 0.098 µg/mL | 0.049 µg/mL | 0.049 µg/mL | 0.781 µg/mL | 0.195 µg/mL | 0.098 µg/mL | 0.391 µg/mL | 0.004 µg/mL | 0.049 µg/mL | 0.781 µg/mL | 0.391 µg/mL | 0.013 µg/mL | 0.013 µg/mL | 0.004 µg/mL | 0.391 µg/mL | < 0.002 µg/mL | 0.025 µg/mL | 0.049 µg/mL | 0.013 µg/mL | –
CCOC(=O)C(C(=O)OCC)C(=O)c1cn(C2CC2)c2c(Cl)c(N3CCC(N)C3)c(F)cc2c1=O (stereo not drawn) [Example 22, 1-cyclopropyl-6-fluoro-8-chloro-7-(3-aminopyrrolidin-1-yl)-3-(2,2-diethoxycarbonylacetyl)-1,4-dihydro-4-oxoquinoline hydrochloride] | 0.004 µg/mL | 0.098 µg/mL | 0.025 µg/mL | 0.049 µg/mL | 0.391 µg/mL | 0.781 µg/mL | 0.195 µg/mL | – | < 0.002 µg/mL | 0.098 µg/mL | 0.391 µg/mL | 0.781 µg/mL | 0.004 µg/mL | < 0.002 µg/mL | 0.004 µg/mL | 0.781 µg/mL | < 0.002 µg/mL | 0.025 µg/mL | 0.049 µg/mL | – | MIC ([8]; Streptococcus pyogenes, 77A, 18 h): 0.781 µg/mL; MIC ([9]; 18 hours, read-out: MIC): < 0.002 µg/mL
